Converted amounts (≈) assume the structure as drawn.

For data set [1], the system named is Botrytis cinerea (ATCC #204446). As to the kind of experiment: in vitro inhibition assay for volatile antimicrobial compounds (headspace, PDA agar). The settings on record: volatile headspace exposure, 3 days at 23° C.; for MIC / EC50: Botrytis cinerea, ATCC204446, 72 h; for EC50: growth relative to control. Type of data set: cell-based. As to the method:
(§1) 12-well (6.5 ml volume per well) microtiter plates are used for the in vitro inhibition assay for volatile antimicrobial compounds. A 3-ml volume of full-strength Potato Dextrose Agar (PDA) is added to each well. After cooling, 1 μL of 1×10^5 spores per ml Botrytis cinerea (ATCC #204446) spore suspension is spot pipetted to the agar in the center of the well. Whatman #1 filter disks (1.5 cm; Cat. No. 1001-0155) are placed on the underside of a polyethylene PCR plate sealing film. For determination of the minimum inhibitory concentration (MIC), test compounds are diluted in acetone, in duplicate, and 50 μli of the compound solution is added to disks at concentrations that can vary from 0.001 mg/l to 1142.9 mg/l. The acetone is permitted to evaporate for 5 minutes. The headspace around the Botrytis cinerea inoculum is then sealed inside the well by the film with the adhering disk containing the antimicrobial, anti-decay, anti-spoilage, or pathogen control agent. Plates are inverted to prevent any possibility of the chemical from flaking from the disk and falling onto the inoculated agar.

The next data set has as its system Penicillium expansum. The data set is described as above. The format is cell-based. The settings on record: volatile headspace exposure. Here is the method:
[The procedure below names another organism; the source lists this organism under the same test.] as §1

The subject of a further data set is Alternaria alternata. The data set is described as above. Type of data set: cell-based. The settings on record: volatile headspace exposure. Here is the method: [The procedure below names another organism; the source lists this organism under the same test.] as §1
The test system of data set [2] is Botrytis cinerea (ATCC #204446). Put plainly: Grape in vivo analysis, volatile bioassay on inoculated green table grape. The settings on record: for antimicrobial activity against Botrytis cinerea in grape in vivo analysis: stem wound inoculated, 3 days treatment at 21° C. plus 3 days evaluation; for phytotoxicity in grape in vivo analysis: symptoms of phytotoxicity evaluated daily. On the set-up: species or system Botrytis cinerea on green table grape. As to the method:
In order to assess the in vivo activity of volatile antimicrobial compounds, a volatile bioassay is developed using green table grape. Fruit are removed from the rachis, and 16 to 20 fruit are placed inside a 1 dry pint clamshell (Produce Packaging; Product #03231004KZ) with the stem wound facing upwards. The grapes are inoculated by pipetting 20 μL of 1×10^6 spore per ml Botrytis cinerea (ATCC #204446) into the stem wound. The clamshell is placed inside a 2.55 L plastic container (Snapware; Model #1098421). A Whatman #1 filter paper (4.25 cm; Cat. No. 1001-042) is placed on a watchglass, which is then placed on top of the closed clamshell lid. For determination of the MIC, test compounds are diluted in acetone, and 400 μl of the solution is added to disks, in duplicate, in a dose dependent manner (for example 0.4 to 50 mg/liter). The acetone is permitted to evaporate for 5 minutes. The plastic containers are then closed and placed for 3 days at 21° C. Clamshells are then removed from the treatment plastic container and placed into separate larger secondary containers for a further 3 days of evaluation at 21° C. During these 3 days, fruit are evaluated daily for incidence and severity of disease and symptoms of phytotoxicity.

Data set [3] has the same test system. As to the kind of experiment: Strawberry in vivo analysis, volatile bioassay on wound-inoculated strawberry. Also on record: species or system Botrytis cinerea on strawberry. To be noted: for phytotoxicity in strawberry in vivo analysis: symptoms of phytotoxicity evaluated daily; for antimicrobial activity against Botrytis cinerea in strawberry in vivo analysis: wound-inoculated, 3 days treatment at 21° C. plus 3 days evaluation. Here is the method:
In order to assess the in vivo activity of volatile antimicrobial compounds, a volatile bioassay is developed using strawberry. Fruit (6 to 8) are placed inside a 1 lb clamshell (Packaging Direct Inc.; Product #4341699) with the calyx facing downward. The strawberry fruit are wound-inoculated by pipetting 20 μL of 1×10^6 spore per ml Botrytis cinerea (ATCC #204446) into a wound approximately 5 mm deep and 2.6 mm in width. The clamshell is placed inside a 2.55 L plastic container (Snapware; Model #1098421). A Whatman #1 filter paper (4.25 cm; Cat. No. 1001-042) is placed on a watchglass, which is then placed on top of the closed clamshell lid. For determination of the MIC, test compounds are diluted in acetone, and 400 μl of the solution is added to disks, in duplicate, in a dose dependent manner (for example 0.4 to 50 mg/liter). The acetone is permitted to evaporate for 5 minutes. The plastic containers are then closed and placed for 3 days at 21° C. Clamshells are then removed from the treatment plastic container and placed into separate larger secondary containers for a further 3 days of evaluation at 21° C. During these 3 days, fruit are evaluated daily for incidence and severity of disease and symptoms of phytotoxicity.

For data set [4], the system named is Escherichia coli (ATCC #25922). As to the kind of experiment: in vitro inhibition assay for volatile antimicrobial compounds against bacteria (LB agar). The format is cell-based. To be noted: volatile headspace exposure, 2 days at 23° C. As to the method:
12-well (6.5 ml volume per well) microtiter plates are used for the in vitro inhibition assay for volatile antimicrobial compounds. A 3-ml volume of full-strength L^B Agar is added to each well. After cooling, 15 μL of Escherichia coli (ATCC #25922) adjusted to an optical density of 0.02 to 0.035, and further diluted 1/10 is pipetted to the center of the agar. The plate is tilted to distribute bacteria uniformly. Whatman #1 filter disks (1.5 cm; Cat. No. 1001-0155) are placed on the underside of a polyethylene PCR plate sealing film. […] The acetone is permitted to evaporate for 5 minutes. The headspace around the Escherichia coli inoculum is then sealed inside the well by the film with the adhering disk containing the antimicrobial, anti-decay, anti-spoilage, or pathogen control agent. Plates are inverted, placed over the treated disks and sealed to prevent any of the chemical from flaking from the disk and falling onto the inoculated agar. After 2 days of incubation at 23° C., cultures were evaluated for colony growth relative to control.

As a reminder, the MIC is the smallest concentration in the dilution series that meets the test's criterion for growth inhibition. As usually defined, the EC50 is the concentration at which the effect is half-maximal. Read a low EC50 as a more potent agent. Consider `CC(C)(OB1OCc2ccccc21)C(C)(C)OB1OCc2ccccc21` [Compound 3, 1,1′-((2,3-dimethylbutane-2,3-diyl)bis(oxy))bis(1,3-dihydrobenzo[c][1,2]oxaborole)], for which the MIC in data set [1] was determined as 8.9 µg/mL (≈ 25.4 µM); against Penicillium expansum it was 71.4 µg/mL (≈ 204 µM). Besides, the EC50 in data set [1] turned out to be 2.1 µg/mL (≈ 6 µM); with Penicillium expansum it was 11.1 µg/mL (≈ 31.7 µM).
Consider `c1ccc2c(c1)COB2OCCNCCNCCOB1OCc2ccccc21` [Compound 4, N^1,N^2-bis(2-(benzo[c][1,2]oxaborol-1(3H)-yloxy)ethyl)ethane-1,2-diamine], for which, in data set [1], the MIC was found to be 1.1 µg/mL (≈ 2.89 µM) and the EC50 was 0.4 µg/mL (≈ 1.05 µM). In addition, in the data set with Penicillium expansum, it took 2 µg/mL (≈ 5.26 µM) to reach a half-maximal effect (EC50) and the MIC turned out to be 8.9 µg/mL (≈ 23.4 µM).
As to `c1ccc2c(c1)COB2NCCNB1OCc2ccccc21` [Compound 5, N^1,N^2-bis(benzo[c][1,2]oxaborol-1(3H)-yl)ethane-1,2-diamine], in the data set on Penicillium expansum, the EC50 amounted to 3.3 µg/mL (≈ 11.3 µM) and inhibition of growth (MIC) required 17.9 µg/mL (≈ 61.3 µM).
In data set [1], `c1ccc2c(c1)COB2OB1OCc2ccccc21` [Compound 6, 1,1′-oxybis(1,3-dihydrobenzo[c][1,2]oxaborole)] yielded a minimum inhibitory concentration (MIC) of 2.2 µg/mL (≈ 8.8 µM) and an EC50 of 0.8 µg/mL (≈ 3.2 µM). Further, in the data set with Penicillium expansum, a half-maximal effect (EC50) was put at 3.1 µg/mL (≈ 12.4 µM) and the MIC stood at 17.9 µg/mL (≈ 71.6 µM).
The matching figures for `CC(C)(COB1OCc2cc(F)ccc21)COB1OCc2cc(F)ccc21` [Compound 8, 1,1′-((2,2-dimethylpropane-1,3-diyl)bis(oxy))bis(5-fluoro-1,3-dihydrobenzo[c][1,2]oxaborole)]: 0.6 µg/mL (≈ 1.61 µM), 0.3 µg/mL (≈ 0.806 µM), 0.8 µg/mL (≈ 2.15 µM) and 2.2 µg/mL (≈ 5.91 µM).
As for `CC(C)(OB1OCc2cc(F)ccc21)C(C)(C)OB1OCc2cc(F)ccc21` [Compound 9, 1,1′-((2,3-dimethylbutane-2,3-diyl)bis(oxy))bis(5-fluoro-1,3-dihydrobenzo[c][1,2]oxaborole)], in the data set with Alternaria alternata, the response was half-maximal at 0.3 µg/mL (≈ 0.777 µM) (EC50) and the MIC is 2.2 µg/mL (≈ 5.7 µM). In data set [1], this compound came in with an MIC of 1.1 µg/mL (≈ 2.85 µM) and an EC50 of 0.3 µg/mL (≈ 0.777 µM). In the data set with Penicillium expansum, this compound gave an EC50 of 0.8 µg/mL (≈ 2.07 µM) and an MIC of 4.5 µg/mL (≈ 11.7 µM). Besides, in data set [2], the “antimicrobial activity against Botrytis cinerea in grape in vivo analysis” value is on record as “good antimicrobial activity” and the “phytotoxicity in grape in vivo analysis” value is “no phytotoxicity”. Further, in data set [3], the “phytotoxicity in strawberry in vivo analysis” value is “no phytotoxicity” and the “antimicrobial activity against Botrytis cinerea in strawberry in vivo analysis” value is “good antimicrobial activity”. The “antimicrobial activity against Escherichia coli (colony growth relative to control)” value in data set [4] is “good antimicrobial activity”.
Consider `Fc1ccc2c(c1)COB2OCCNCCNCCOB1OCc2cc(F)ccc21` [Compound 10, N^1,N^2-bis(2-((5-fluorobenzo[c][1,2]oxaborol-1(3H)-yl)oxy)ethyl)ethane-1,2-diamine], for which, in data set [1], the minimal inhibitory concentration (MIC) turned out to be 0.6 µg/mL (≈ 1.44 µM) and the EC50 was determined as 0.2 µg/mL (≈ 0.481 µM). In the data set on Penicillium expansum, this compound came in with an EC50 of 0.9 µg/mL (≈ 2.16 µM) and an MIC of 8.9 µg/mL (≈ 21.4 µM).
In data set [1], `OC(COB1OCc2cc(F)ccc21)COB1OCc2cc(F)ccc21` [Compound 12, 1,3-bis((5-fluorobenzo[c][1,2]oxaborol-1(3H)-yl)oxy)propan-2-ol] showed an MIC of 0.6 µg/mL (≈ 1.67 µM) and an EC50 of 0.2 µg/mL (≈ 0.556 µM). In the data set with Penicillium expansum, this compound showed an EC50 of 1.1 µg/mL (≈ 3.06 µM) and an MIC of 8.9 µg/mL (≈ 24.7 µM).
In data set [1], `Fc1ccc2c(c1)COB2OCCCOB1OCc2cc(F)ccc21` [Compound 13, 1,3-bis((5-fluorobenzo[c][1,2]oxaborol-1(3H)-yl)oxy)propane] yielded an MIC of 0.3 µg/mL (≈ 0.872 µM) and an EC50 of 0.1 µg/mL (≈ 0.291 µM). Besides, in the data set with Penicillium expansum, the midpoint of the response, the EC50, lay at 0.8 µg/mL (≈ 2.33 µM) and the MIC worked out at 8.9 µg/mL (≈ 25.9 µM). In data set [2], the “antimicrobial activity against Botrytis cinerea in grape in vivo analysis” value is “good antimicrobial activity” and the “phytotoxicity in grape in vivo analysis” value is “no phytotoxicity”. In data set [3], the “phytotoxicity in strawberry in vivo analysis” value was “no phytotoxicity” and the “antimicrobial activity against Botrytis cinerea in strawberry in vivo analysis” value was “good antimicrobial activity”. The “antimicrobial activity against Escherichia coli (colony growth relative to control)” value in data set [4] was “good antimicrobial activity”.
Consider `Fc1ccc2c(c1)COB2OCc1ccc(COB2OCc3cc(F)ccc32)cc1` [Compound 14, 1,4-bis(((5-fluorobenzo[c][1,2]oxaborol-1(3H)-yl)oxy)methyl)benzene], for which, in data set [1], the MIC was found to be 1.1 µg/mL (≈ 2.71 µM) and the EC50 came to 0.4 µg/mL (≈ 0.985 µM). Also, in the data set with Penicillium expansum, the EC50 came to 1.7 µg/mL (≈ 4.19 µM) and the MIC worked out at 17.9 µg/mL (≈ 44.1 µM).
The matching figures for `Fc1ccc2c(c1)COB2OCc1cccc(COB2OCc3cc(F)ccc32)c1` [Compound 15, 1,3-bis(((5-fluorobenzo[c][1,2]oxaborol-1(3H)-yl)oxy)methyl)benzene]: 2.2 µg/mL (≈ 5.42 µM), 0.7 µg/mL (≈ 1.72 µM), 2.5 µg/mL (≈ 6.16 µM) and 17.9 µg/mL (≈ 44.1 µM).
The matching figures for `Fc1ccc2c(c1)COB2NCCCNB1OCc2cc(F)ccc21` [Compound 16, N^1,N^3-bis(5-fluorobenzo[c][1,2]oxaborol-1(3H)-yl)propane-1,3-diamine]: 1.1 µg/mL (≈ 3.22 µM), 0.3 µg/mL (≈ 0.877 µM), 1 µg/mL (≈ 2.92 µM) and 8.9 µg/mL (≈ 26 µM).
The matching figures for `Fc1ccc2c(c1)COB2NCCNB1OCc2cc(F)ccc21` [Compound 17, N^1,N^2-bis(5-fluorobenzo[c][1,2]oxaborol-1(3H)-yl)ethane-1,2-diamine]: 1.1 µg/mL (≈ 3.35 µM), 0.4 µg/mL (≈ 1.22 µM), 1.8 µg/mL (≈ 5.49 µM) and 17.9 µg/mL (≈ 54.6 µM).
On to `Fc1cc2c(cc1F)B(OCCOB1OCc3cc(F)c(F)cc31)OC2` [Compound 18, 1,2-bis((5,6-difluorobenzo[c][1,2]oxaborol-1(3H)-yl)oxy)ethane], for which the MIC in data set [1] was 9 µg/mL (≈ 24.6 µM); in the data set on Penicillium expansum, > 35.7 µg/mL. Further, the results for the EC50 (in data set [1]; in the data set with Penicillium expansum) were 3 µg/mL (≈ 8.2 µM) and > 35.7 µg/mL, respectively.
Take `Clc1ccc2c(c1)COB2OCCOB1OCc2cc(Cl)ccc21` [Compound 19, 1,2-bis((5-chlorobenzo[c][1,2]oxaborol-1(3H)-yl)oxy)ethane]: in data set [1], the “MIC Botrytis cinerea” value was found to be 0 µg/mL.
In data set [1], `Fc1ccc2c(c1)COB2OB1OCc2cc(F)ccc21` [Compound 20, 1,1′-oxybis(5-fluoro-1,3-dihydrobenzo[c][1,2]oxaborole)] had an MIC of 0.3 µg/mL (≈ 1.05 µM) and an EC50 of 0.1 µg/mL (≈ 0.35 µM). For the same compound, in the data set on Penicillium expansum, the EC50 amounted to 0.5 µg/mL (≈ 1.75 µM) and the MIC amounted to 4.5 µg/mL (≈ 15.7 µM).

Values taken from patent US20210238201A1, “ANTIMICROBIAL COMPOUNDS AND COMPOSITIONS” (AGROFRESH INC., priority 2020, published 2021).
